Results reported in ChEMBL document CHEMBL5500371, “Arginine and tryptophan-rich dendritic antimicrobial peptides that disrupt membranes for bacterial infection in vivo” (Eur J Med Chem, 2024).
Active and inactive are the calls of the source. No cut-off for these calls is given here. Where a SMILES comes first, the peptide text is derived from it. Side-chain parts run from the residue outwards.

Experiments:
[1] = Systemic toxicity in male BALB/c mouse assessed as hepatocyte hemorrhage at 105.41 mg/kg, ip administered as single dose by H and E staining based analysis; type: organism-based; details: hepatocytes
[2] = system: Escherichia coli; experiment: Antibacterial activity against Escherichia coli ATCC 25922 assessed as inhibition of bacterial growth incubated for 20 hrs in presence of MgCl2 by broth microdilution method (reference value: 8 microM); type: functional
[3] = system: Staphylococcus aureus; experiment: Antibacterial activity against Staphylococcus aureus ATCC 25923 assessed as inhibition of bacterial growth incubated for 20 hrs in presence of ZnCl2 by broth microdilution method (reference value: 8 microM); type: functional
[4] = system: Staphylococcus aureus; experiment: Antibacterial activity against Staphylococcus aureus ATCC 25923 assessed as inhibition of bacterial growth incubated for 20 hrs in presence of KCl by broth microdilution method (reference value: 8 microM); type: functional
[5] = system: Escherichia coli; experiment: […] activity against Escherichia coli ATCC 25922 infected in male BALB/c pulmonary infection model assessed as reduction in bacterial colonies at 5 to 10 mg/kg, ip administered at 3 and 12 hrs post infection and measured 24 hrs post infection; type: functional, organism-based; details: dose 5-10 mg/kg, time 12-21 hrs
[6] = system: Staphylococcus aureus; experiment: Synergistic antibacterial activity against gentamicin resistant Staphylococcus aureus ATCC 25923 assessed as fractional inhibitory concentration index at 0.25 to 4 times MIC incubated for 20 hrs in presence of gentamicin by checkerboard assay; type: functional
[7] = system: Staphylococcus aureus; experiment: Antibacterial activity against Staphylococcus aureus ATCC 25923 assessed as inhibition of bacterial growth incubated for 20 hrs in presence of MgCl2 by broth microdilution method (reference value: 8 microM); type: functional
[8] = Systemic toxicity in male BALB/c mouse assessed as renal cell necrosis at 105.41 mg/kg, ip administered as single dose by H and E staining based analysis; type: organism-based; details: in vivo
[9] = system: Escherichia coli; experiment: Antibacterial activity against Escherichia coli ATCC 25922 assessed as inhibition of bacterial growth incubated for 20 hrs in presence of NaCl by broth microdilution method (reference value: 16 microM); type: functional
[10] = Systemic toxicity in male BALB/c mouse assessed as hepatocyte hemorrhage at 109.31 mg/kg, ip administered as single dose by H and E staining based analysis; type: organism-based; details: hepatocytes
[11] = system: Staphylococcus aureus; experiment: Antibacterial activity against Staphylococcus aureus ATCC 25923 assessed as inhibition of bacterial growth upto 20 ug/ml pretreated with chymotrypsin for 6 hrs and measured after 18 hrs by absorbance based method; type: functional, organism-based; details: dose <= 20.0 µg/ml, time 24.0 hrs
[12] = system: Escherichia coli; experiment: Antibacterial activity against Escherichia coli ATCC 25922 assessed as inhibition of bacterial growth incubated for 20 hrs in presence of MgCl2 by broth microdilution method (reference value: 16 microM); type: functional
[13] = Systemic toxicity in male BALB/c mouse assessed as lung inflammatory cell infiltration at 109.31 mg/kg, ip administered as single dose by H and E staining based analysis; type: organism-based; details: in vivo
[14] = system: Escherichia coli; experiment: Antibacterial activity against Escherichia coli ATCC 25922 assessed as inhibition of bacterial growth incubated for 20 hrs in presence of ZnCl2 by broth microdilution method (reference value: 16 microM); type: functional
[15] = system: Staphylococcus aureus; experiment: Additive antibacterial activity against Staphylococcus aureus ATCC 25923 assessed as fractional inhibitory concentration index at 0.25 to 4 times MIC incubated for 20 hrs in presence of rifampicin by checkerboard assay; type: functional, organism-based
[16] = system: Escherichia coli; experiment: Synergistic antibacterial activity against Escherichia coli ATCC 25922 assessed as fractional inhibitory concentration index at 0.25 to 4 times MIC incubated for 20 hrs in presence of vancomycin by checkerboard assay; type: functional, organism-based
[17] = system: Escherichia coli; experiment: Antibacterial activity against Escherichia coli ATCC 25922 assessed as inhibition of bacterial growth incubated for 20 hrs in presence of ZnCl2 by broth microdilution method (reference value: 4 microM); type: functional, organism-based
[18] = system: Escherichia coli; experiment: Antibacterial activity against Escherichia coli ATCC 25922 assessed as inhibition of bacterial growth incubated for 20 hrs in presence of KCl by broth microdilution method (reference value: 4 microM); type: functional, organism-based
[19] = system: Escherichia coli; experiment: Antibacterial activity against Escherichia coli ATCC 25922 assessed as inhibition of bacterial growth incubated for 20 hrs in presence of FeCl3 by broth microdilution method (reference value: 4 microM); type: functional, organism-based
[20] = system: Escherichia coli; experiment: […] activity against Escherichia coli ATCC 25922 infected in male BALB/c pulmonary infection model assessed as reduction in inflammatory cell infiltration at 10 mg/kg, ip administered at 3 and 12 hrs post infection and measured 24 hrs post infection by H and E staining based analysis; type: functional, organism-based; details: time 12-21 hrs
[21] = system: Staphylococcus aureus; experiment: Bactericidal activity against Staphylococcus aureus ATCC 25923 assessed as elimination of bacteria at 2 times MIC measured after >6 hrs by time kill assay; type: functional, organism-based
[22] = system: Cell membrane; experiment: Induction of cytoplasmic membrane depolarization in Staphylococcus aureus assessed as increase in fluorescence intensity at 0.5 to 4 times MIC measured upto 13 mins by DISC3-5 dye based fluorescence analysis

N=C(N)NCCC[C@H](NC(=O)[C@H](CCCNC(=N)N)NC(=O)[C@H](CCCNC(=N)N)NC(=O)[C@@H](N)CCCNC(=N)N)C(=O)N[C@@H](CCCCN)C(=O)N[C@@H](Cc1c[nH]c2ccccc12)C(=O)N[C@@H](Cc1c[nH]c2ccccc12)C(=O)N[C@@H](Cc1c[nH]c2ccccc12)C(=O)N[C@@H](Cc1c[nH]c2ccccc12)C(N)=O
Activity [1]: Non-Toxic | MIC [2]: 16 µM | MIC [3]: 8 µM | MIC [4]: 8 µM | Activity [5]: Active | fractional inhibitory concentration index (FICI) [6]: 0.5 | MIC [7]: 16 µM | Activity [8]: Non-Toxic

N=C(N)NCCC[C@H](NC(=O)[C@@H](N)CCCNC(=N)N)C(=O)NCCCC[C@H](NC(=O)[C@H](CCCNC(=N)N)NC(=O)[C@@H](N)CCCNC(=N)N)C(=O)N[C@@H](Cc1c[nH]c2ccccc12)C(=O)N[C@@H](Cc1c[nH]c2ccccc12)C(=O)N[C@@H](Cc1c[nH]c2ccccc12)C(=O)N[C@@H](Cc1c[nH]c2ccccc12)C(N)=O (H-RRK([Arg-Arg])WWWW-NH2)
MIC [9]: 32 µM | Activity [10]: Non-Toxic | Activity [11]: Active | MIC [12]: 16 µM | Activity [13]: Non-Toxic | MIC [14]: 8 µM

POLYMYXIN B
fractional inhibitory concentration index (FICI) [15]: 0.563 | fractional inhibitory concentration index (FICI) [16]: 0.313 | MIC [17]: 8 µM | MIC [18]: 4 µM | MIC [19]: 4 µM | Activity [20]: inactive | Activity [21]: 100% | Activity [22]: inactive
